In US20260347372A1, “SMALL MOLECULE INHIBITORS OF KRAS G12D MUTANT” (MERCK SHARP & DOHME LLC, priority 2023, published 2026):

Legend:
KRAS G12V = KRAS G12V (Homo sapiens, UniProt P01116, G12V); experiment: SOS-catalyzed nucleotide exchange assay, KRAS G12V (Procedure A); assay type: biochemical; settings: GNE
Outline: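 Biotinylated KRAS G12V was loaded with Bodipy-GDP alongside Terbium-streptavidin to form a TR-FRET complex, which was preincubated with compounds for 60 minutes in 384-well plates. Human SOS protein and unlabeled GTP were then added for 90 minutes, giving final concentrations of 1.25 nM KRAS-G12V, 160 nM SOS and 3 mM GTP. The 520/495 nm emission ratio was read on an Envision.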

KRAS G13D = KRAS G13D (Homo sapiens, UniProt P01116, G13D); experiment: SOS-catalyzed nucleotide exchange assay, KRAS G13D (Procedure A); assay type: biochemical; settings: GNE
Outline: (§1)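 Preformed TR-FRET complex of biotinylated KRAS (G12C carries C51S/C80L/C118S; others native sequence), Bodipy-GDP and Tb-streptavidin preincubated with compound 60 min at room temperature. Exchange started with human SOS plus 3 mM GTP for 60 min (G13D 30 min). Final RAS/SOS: G12C 3/40 nM; WT, G12D 1/40 nM; G13D 1.25/0 nM. 520/495 nm ratio normalised, fitted to four-parameter logistic.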

NRAS = NRAS (Homo sapiens, UniProt P01111); experiment: SOS-catalyzed nucleotide exchange assay, NRAS (Procedure A); assay type: biochemical; settings: GNE
Outline: (§2)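 Compounds were preincubated 60 min with a biotinylated RAS·Bodipy-GDP/Tb-streptavidin TR-FRET complex, and exchange was started with human SOS plus 3 mM GTP at RT. RAS/SOS: G12C 3 nM/40 nM, WT and G12D 1 nM/40 nM, all 60 min; G13D 1.25 nM/0 nM, 30 min. 520/495 ratio normalized to DMSO and saturating inhibitor, four-parameter fit.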

PANC08.13 cells = biological target: T1, PANC08.13 cells (Homo sapiens, UniProt P01116, G12D); experiment: Cellular phospho-ERK assay, PANC08.13 cells (KRAS G12D); assay type: cell-based; settings: 2 hours, read-out: PANCO 813 pERK IC50
T1 construct: p-ERK/total ERK AlphaSureFire read-out
Description: Procedure for Cellular Phospho-ERK Assay in KRAS Wild Type and Mutant (G12D, G12V) Cell Lines
PANC08.13 cells (ATCC® CRL-2551™), containing homozygous KRAS-G12D activating mutation, were cultured in growth medium made of RPMI1640-GlutaMAX™-I (ThermoFisher Scientific 61870) containing 15% heat inactivated fetal bovine serum (ThermoFisher Scientific 10091148)). AsPC-1 cells (ATCC® CRL-1682™), containing homozygous KRAS-G12D activating mutation, were cultured in T150 flask in growth medium (RPMI medium 1640-GlutaMAX™-I (ThermoFisher Scientific 61870) containing 10% fetal bovine serum (ThermoFisher Scientific 10091148)).
Cells for the assay were harvested in growth medium after TrypLE (ThermoFisher scientific 12604021) digestion and were seeded in a 384-well collagen coated cell culture plate (Corning 356702) at a density of 10,000-15,000 cells/20 μL/well, and incubated at 37° C., 5% CO2 overnight. The compound (with 10 mM stock concentration) dose-response titrations were prepared [30 μM final ERK detection assay concentration and 1:3 dilutions, 10-point dose response] and appropriate amounts (270 nL) of test compounds were dispensed in a 384-well intermediate plate using an Echo 550 liquid handler. 30 μL/well of RPMI medium 1640-GlutaMAX™-I was added to the intermediate plate and the contents of the intermediate plate (10 μL/well) were then transferred to the 384-well collagen coated cell culture plate, which was incubated at 37° C., 5% CO2 for 2 hours. After removal of medium from the collagen coated cell culture plate, cells were lysed in lysis buffer from Alpha SureFire® Ultra™ Multiplex p-ERK and total ERK assay kit (PerkinElmer MPSU-PTERK) containing Halt™ Protease and Phosphatase inhibitor cocktail (ThermoFisher Scientific 78446) at room temperature with constant shaking at 300 rpm for 30 minutes. The cell lysates were then transferred to an OptiPlate-384 plate (PerkinElmer 6005620), and the phosphorylation of ERK (p-ERK) and total ERK levels were detected by Alpha SureFire® Ultra™ Multiplex p-EEK kit and total ERK assay kit (PerkinElmer MPSU-PTERK) following the manufacturer's protocol. Assay plates were read on a EnVision Multimode Plate Reader (PerkinElmer), and the ratio of p-ERK vs. total ERK in each well was used as the final readout. Dose response curves were analyzed using a 4-parameter logistic model to calculate IC50 values using Spotfire software.

KRAS G12C = KRAS G12C (Homo sapiens, UniProt P01116, C118S/C51S/C80L/G12C); experiment: SOS-catalyzed nucleotide exchange assay, KRAS G12C (Procedure A); assay type: biochemical; settings: GNE
Outline: as §1

HRAS = HRAS (Homo sapiens, UniProt P01112); experiment: SOS-catalyzed nucleotide exchange assay, HRAS (Procedure A); assay type: biochemical; settings: GNE
Outline: as §2

KRAS G12D = KRAS G12D (Homo sapiens, UniProt P01116, G12D); experiment: SOS-catalyzed nucleotide exchange assay, KRAS G12D (Procedure A); assay type: biochemical; settings: guanine nucleotide exchange (GNE)
Outline: as §1

KRAS WT = KRAS WT (Homo sapiens, UniProt P01116); experiment: SOS-catalyzed nucleotide exchange assay, KRAS WT (Procedure A); assay type: biochemical; settings: GNE
Outline: as §1

AsPC-1 cells = biological target: T2, AsPC-1 cells (Homo sapiens, UniProt P01116, G12D); experiment: Cellular phospho-ERK assay, AsPC-1 cells (KRAS G12D); assay type: cell-based; settings: 2 hours, read-out: AsPC1 pERK IC50
T2 construct: p-ERK/total ERK AlphaSureFire read-out
Outline: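 PANC08.13 or AsPC-1 cells (homozygous KRAS G12D) were seeded overnight, then treated for 2 h at 37 °C with a 10-point 1:3 titration from 30 μM. Lysates were assayed by AlphaLISA SureFire for p-ERK and total ERK. IC50 came from a 4-parameter fit of the p-ERK/total ERK ratio.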

Sequence of KRAS G12C (P01116 with tags, fused parts or gaps isoform P01116-2 G12C/C51S/C80L/C118S): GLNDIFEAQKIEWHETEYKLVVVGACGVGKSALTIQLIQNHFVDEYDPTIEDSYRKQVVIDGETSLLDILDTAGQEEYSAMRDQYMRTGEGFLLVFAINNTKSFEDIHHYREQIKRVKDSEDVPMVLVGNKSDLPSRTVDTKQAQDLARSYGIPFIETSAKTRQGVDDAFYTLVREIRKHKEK
Sequence of HRAS (P01112 with tags, fused parts or gaps): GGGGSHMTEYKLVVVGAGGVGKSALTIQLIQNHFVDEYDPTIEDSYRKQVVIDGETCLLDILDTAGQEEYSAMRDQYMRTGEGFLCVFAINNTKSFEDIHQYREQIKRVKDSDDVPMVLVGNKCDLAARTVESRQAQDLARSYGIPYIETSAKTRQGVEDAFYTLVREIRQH
Sequence of KRAS G12D (P01116 with tags, fused parts or gaps isoform P01116-2 G12D): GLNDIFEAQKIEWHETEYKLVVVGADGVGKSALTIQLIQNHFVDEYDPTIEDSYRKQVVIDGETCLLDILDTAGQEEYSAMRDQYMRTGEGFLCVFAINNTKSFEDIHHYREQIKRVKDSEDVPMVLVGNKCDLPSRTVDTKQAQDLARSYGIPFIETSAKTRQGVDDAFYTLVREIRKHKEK
T1 sequence (P01116 1-188 isoform P01116-2 G12D): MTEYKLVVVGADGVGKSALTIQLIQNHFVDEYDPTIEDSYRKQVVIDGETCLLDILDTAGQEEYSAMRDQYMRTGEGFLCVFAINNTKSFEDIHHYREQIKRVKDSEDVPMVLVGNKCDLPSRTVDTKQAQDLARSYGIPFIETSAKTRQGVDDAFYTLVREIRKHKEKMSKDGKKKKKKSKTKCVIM
Sequence of KRAS G12V (P01116 with tags, fused parts or gaps isoform P01116-2 G12V): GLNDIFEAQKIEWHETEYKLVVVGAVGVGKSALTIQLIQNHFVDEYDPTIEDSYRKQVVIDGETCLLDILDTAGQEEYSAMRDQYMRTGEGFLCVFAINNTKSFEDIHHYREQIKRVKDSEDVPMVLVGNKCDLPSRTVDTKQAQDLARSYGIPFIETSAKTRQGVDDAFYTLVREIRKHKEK
Sequence of NRAS (P01111 with tags, fused parts or gaps): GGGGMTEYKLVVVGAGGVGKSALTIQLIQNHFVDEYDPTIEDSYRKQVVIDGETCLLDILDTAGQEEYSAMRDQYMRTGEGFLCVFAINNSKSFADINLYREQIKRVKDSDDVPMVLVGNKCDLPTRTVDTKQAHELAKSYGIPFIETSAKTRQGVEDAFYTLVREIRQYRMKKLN
Sequence of KRAS WT (P01116 with tags, fused parts or gaps isoform P01116-2): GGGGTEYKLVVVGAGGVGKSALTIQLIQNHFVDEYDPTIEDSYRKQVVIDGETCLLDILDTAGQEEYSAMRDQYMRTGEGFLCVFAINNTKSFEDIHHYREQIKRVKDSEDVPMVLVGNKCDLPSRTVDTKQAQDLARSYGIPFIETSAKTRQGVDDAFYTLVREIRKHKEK
Sequence of KRAS G13D (P01116 with tags, fused parts or gaps isoform P01116-2 G13D): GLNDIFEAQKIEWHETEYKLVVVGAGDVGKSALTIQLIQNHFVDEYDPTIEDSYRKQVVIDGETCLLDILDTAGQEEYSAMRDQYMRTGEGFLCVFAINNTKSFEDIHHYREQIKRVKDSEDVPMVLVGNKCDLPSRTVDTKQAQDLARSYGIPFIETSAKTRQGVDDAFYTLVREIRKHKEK
T2 sequence (P01116 1-188 isoform P01116-2 G12D): as the sequence (P01116 1-188 isoform P01116-2 G12D) above

SMILES	IC50 (KRAS G12V) [µM]	IC50 (KRAS G13D) [nM]	IC50 (NRAS) [µM]	IC50 (PANC08.13 cells) [nM]	IC50 (KRAS G12C) [µM]	IC50 (HRAS) [µM]	IC50 (KRAS G12D) [nM]	IC50 (KRAS WT) [µM]	IC50 (AsPC-1 cells) [nM]
Cn1c2nc(OC[C@]3(CO)CC3(F)F)nc(N3C[C@H]4CC[C@@H](C3)N4)c2c2ccnc(-c3c(F)cc(F)c4sc(N)c(C#N)c34)c21 [Ex-63, 4-(4-((1R,5S)-3,8-diazabicyclo[3.2.1]octan-3-yl)-2-(((R)-2,2-difluoro-1-(hydroxymethyl)cyclopro-pyl)methoxy)-9-methyl-9H-pyrido[4′,3′:4,5]pyrrolo[2,3-d]pyrimidin-8-yl)-2-amino-5,7-difluorobenzo[b]thiophene-3-carbonitrile]	> 11.1	> 11100	> 11.1	> 10000	> 11.1	> 11.1	73.7	> 11.1	–
Cn1c2nc(OC[C@]3(CO)CC3(F)F)nc(N3C[C@H]4CC[C@@H](C3)N4)c2c2ccnc(-c3ccc(F)c4sc(N)c(C#N)c34)c21 [Ex-62, 4-(4-((1R,5S)-3,8-diazabicyclo[3.2.1]octan-3-yl)-2-(((R)-2,2-difluoro-1-(hydroxymethyl)cyclopro-pyl)methoxy)-9-methyl-9H-pyrido[4′,3′:4,5]pyrrolo[2,3-d]pyrimidin-8-yl)-2-amino-7-fluorobenzo[b]thiophene-3-carbonitrile]	> 11.1	1540	> 11.1	> 10000	8.49	> 11.1	645	> 11.1	–
Cc1cc2[nH]ncc2c(-c2nccc3c4c(N5C[C@H]6CC[C@@H](C5)N6)nc(OC[C@]5(CO)CC5(F)F)nc4n(C)c23)c1C(F)(F)F [Ex-53, ((1R)-1-(((4-((1R,5S)-3,8-diazabicyclo[3.2.1]octan-3-yl)-9-methyl-8-(6-methyl-5-(trifluoromethyl)-1H-indazol-4-yl)-9H-pyrido[4′,3′:4,5]pyrrolo[2,3-d]pyrimidin-2-yl)oxy)methyl)-2,2-difluorocyclopro-pyl)methanol]	> 11.1	4880	> 11.1	3970	> 11.1	> 11.1	583	> 11.1	–
Cc1cc2[nH]ncc2c(-c2nccc3c2sc2nc(OC[C@]4(CO)CC4(F)F)nc(N4C[C@H]5CC[C@@H](C4)N5)c23)c1C(F)(F)F [Ex-25, ((1R)-1-(((4-((1R,5S)-3,8-diazabicyclo[3.2.1]octan-3-yl)-8-(6-methyl-5-(trifluoromethyl)-1H-indazol-4-yl)pyrido[4′,3′:4,5]thieno[2,3-d]pyrimidin-2-yl)oxy)methyl)-2,2-difluorocyclopropyl)methanol]	> 11.1	> 11100	> 11.1	2870	> 11.1	> 11.1	1020	> 11.1	–
C#Cc1cccc2cccc(-c3nccc4c5c(N6C[C@H]7CC[C@@H](C6)N7)nc(OC[C@@]67CCCN6C[C@H](F)C7)nc5n(C)c34)c12 [Ex-9, 4-((1R,5S)-3,8-diazabicyclo[3.2.1]octan-3-yl)-8-(8-ethynylnaphthalen-1-yl)-2-(((2R,7aS)-2-fluoro-tetrahydro-1H-pyrrolizin-7a(5H)-yl)methoxy)-9-methyl-9H-py-rido[4′,3′:4,5]pyrro-lo[2,3-d]pyrimidine]	–	451	> 11.1	315	1.55	> 11.1	40.7	–	490
Cc1cc2[nH]ncc2c(-c2nccc3c4c(N5CC[C@H]6NCC[C@H]65)nc(OC[C@@]56CCCN5C[C@H](F)C6)nc4n(C)c23)c1C(F)(F)F [Ex-66, 2-(((2R,7aS)-2-fluorotetrahydro-1H-pyrrolizin-7a(5H)-yl)methoxy)-4-((3aR,6aR)-hexahydropyrrolo[3,2-b]pyrrol-1(2H)-yl)-9-methyl-8-(6-methyl-5-(trifluoromethyl)-1H-indazol-4-yl)-9H-pyrido[4′,3′:4,5]pyrrolo[2,3-d]pyrimidine]	> 11.1	1500	> 11.1	1260	1.69	> 11.1	202	6.33	–
Cn1c2nc(OC[C@@]34CCCN3C[C@H](F)C4)nc(N3C[C@H]4CC[C@@H](C3)N4)c2c2ccnc(-c3ccc(F)c4sc(N)c(C#N)c34)c21 [Ex-5, 4-(4-((1R,5S)-3,8-diazabicyclo[3.2.1]octan-3-yl)-2-(((2R,7aS)-2-fluorotetrahydro-1H-pyrrolizin-7a(5H)-yl)methoxy)-9-methyl-9H-pyrido[4′,3′:4,5]pyrrolo[2,3-d]pyrimidin-8-yl)-2-amino-7-fluorobenzo[b]thiophene-3-carbonitrile]	> 11.1	349	> 11.1	1190	> 11.1	> 11.1	18	> 11.1	–
Cc1cc(N)nc(-c2nccc3c4c(N5C[C@H]6CC[C@@H](C5)N6)nc(OC[C@@]56CCCN5C[C@H](F)C6)nc4n(C)c23)c1C(F)(F)F [Ex-6, 6-(4-((1R,5S)-3,8-diazabicyclo[3.2.1]octan-3-yl)-2-(((2R,7aS)-2-fluorotetrahydro-1H-pyrrolizin-7a(5H)-yl)methoxy)-9-methyl-9H-pyrido[4′,3′:4,5]pyrrolo[2,3-d]pyrimidin-8-yl)-4-methyl-5-(trifluoromethyl)pyridin-2-amine]	> 11.1	> 11100	> 11.1	9850	> 11.1	> 11.1	906	> 11.1	–
Cc1cc2[nH]nc(C#N)c2c(-c2nccc3c4c(N5C[C@H]6CC[C@@H](C5)N6)nc(OC[C@@]56CCCN5C[C@H](F)C6)nc4n(C)c23)c1C(F)F (single isomer, unassigned) [Ex-4]	> 11.1	4020	> 11.1	3750	> 11.1	> 11.1	119	> 11.1	–
Cc1cc2[nH]ncc2c(-c2nccc3c2oc2nc(OC[C@@]45CCCN4C[C@H](F)C5)nc(N4C[C@H]5CC[C@@H](C4)N5)c23)c1C(F)(F)F [Ex-78, 4-((1R,5S)-3,8-diazabicyclo[3.2.1]octan-3-yl)-2-(((2R,7aS)-2-fluorotetrahydro-1H-pyrrolizin-7a(5H)-yl)methoxy)-8-(6-methyl-5-(trifluoromethyl)-1H-indazol-4-yl)pyrido[4′,3′:4,5]furo[2,3-d]pyrimidine]	> 11.1	> 11100	> 11.1	2650	> 11.1	> 11.1	728	> 11.1	–
